Results on three compounds are retold here after patent publication US20120264804A1, “T TYPE CALCIUM CHANNEL BLOCKERS AND THE TREATMENT OF DISEASES” (University of Virginia Patent Foundation, priority 2004, published 2012).

Read-outs that look alike come from different tables or passages of the source.

Assay [1] concerns PC3 human prostate cancer cells. The assay is described as follows: Proliferation of PC3 prostate cancer cells (CellTiter 96). Format: cell-based. The note with it: read-out: IC50 for inhibiting proliferation of PC3 prostate cancer cells. The method, then:
FIG. 5, TH-1177 and TH-1211 are stereoisomers about one of two chiral centers and have different potencies at inhibiting the proliferation of PC3 prostate cancer cells. Panel A: The structures of TH-1177 and TH-1211 were determined as described in Materials and Methods. The diastereomers are racemic at the benzhydrol center (solid arrows) and enantiomeric at the proline center (open arrows) with TH-1177 having the S configuration and TH-1211 having the R. Panel B: The proliferation of PC3 human prostate cancer cells was determined as described in Materials and Methods.
(§1) LNCaP cells at 2.5×10^4 cells/well or PC-3 cells at 5×10^4 cells/well, both in a final volume of 100 IJI, were plated in triplicate in standard flat-bottomed 96-well tissue culture plates in the presence of drug or vehicle (DMSO). Unless otherwise indicated, cells were grown for 48 h at 37° C. in a CO2 incubator. Relative cell growth was determined with the CellTiter 96 aqueous cell proliferation assay (Promega, Madison, Wis.) as described by the manufacturer using an automated plate reader. Results were calculated in a blinded fashion and are the means of triplicate determinations.

Assay [2] concerns Jurkat cells. The assay is described as follows: Proliferation of Jurkat cells with or without ionomycin. The assay is classed as cell-based, human. Particulars: for IC50: Homo sapiens, Jurkat cells, 48 hrs. The method, then: FIG. 2. The Ca2+ ionophore ionomycin overcomes the inhibition of Ca2+ entry into and proliferation of Jurkat cells produced by TH-1177. Panel A. Ca2+ entry into Jurkat cells was determined as described in Materials and Methods. Ionomycin at the indicated concentrations was added at 30 s and the mitogenic monoclonal antibody (OKT3 was added at a concentration of 1 ug/ml at 60 s. Either EGTA at 2.5 mM or TH-1177 at the indicated concentrations was added at 150 s. The percentage inhibition was determined as described in Material and Methods. Panel B. Jurkat cells were grown for 48 hrs in the presence (open symbols) or absence (closed symbols) of 30 nM ionomycin and the indicated concentrations of TH-1177. Percent control growth was determined as described in Materials and Methods.
as §1

In assay [3] the test system is xenografted human PC3 prostate cancer cells. Particulars: treatment with TH-1177; Haverstick et al. 2000; cited from earlier work.

In the case of `COc1ccc(CCN2CCCC2COC(c2ccccc2)c2ccc(Cl)cc2)cc1` (stereo not drawn) [TH-1177], the IC50 in assay [1] was 14 µM; in assay [2] (in the presence of 30 uM ionomycin, read-out: IC50 of TH-1177 for inhibition of proliferation, in the presence of ionomycin) it was 4.6 µM; in assay [2] (ionomycin absent, read-out: IC50 of TH-1177 for inhibition of proliferation, in the absence of ionomycin) it was 17.8 µM. For the same compound, in assay [3], the “lifespan of mice bearing xenografted PC3 cells” value is given as “significantly extended the lifespan”.
With `COc1ccc(CCN2CCCC2COC(c2ccccc2)c2ccc(Cl)cc2)cc1` (stereo not drawn) [TH-1211], the IC50 in assay [1] amounted to 42 µM.
As for `C[C@H](CCC(=O)O)C[C@H](C)C[C@H](C)C(=O)/C=C(\O)[C@H](C)C[C@H](C)C/C=C/[C@@H](C)[C@@H](O)[C@@H](C)[C@@H](O)C[C@@H]1CC[C@@](C)([C@H]2CC[C@@](C)([C@@H](C)O)O2)O1` [ionomycin, reference compound], the “effect on proliferation of ionomycin alone” value in assay [2] (30 nM ionomycin alone) was “no effect”.
